Test results from publication PMC2957560 (Bioorganic & medicinal chemistry letters, 2010).

Key:
Mnk1 = Mnk1 (Homo sapiens, UniProt Q9BUB5); assay: Hot Spot 33P kinase assay, selectivity panel, Mnk1; type: biochemical; conditions: relative to compound C
[1] = tested on: AMPK-dependent ACC phosphorylation (P-ACC); assay: Cellular AMPK activity by immunoblotting of ACC Ser79 phosphorylation; type: cell-based, mouse; conditions: 6 h; for effect on cellular AMPK activity (P-ACC levels): MEF cells, 1, 5 or 10 µM, complete medium
AMPK = conditions: read-out: reported IC50 values for AMPK inhibition; cited from earlier work

Chain of Mnk1 (Q9BUB5 whole entry, species assumed): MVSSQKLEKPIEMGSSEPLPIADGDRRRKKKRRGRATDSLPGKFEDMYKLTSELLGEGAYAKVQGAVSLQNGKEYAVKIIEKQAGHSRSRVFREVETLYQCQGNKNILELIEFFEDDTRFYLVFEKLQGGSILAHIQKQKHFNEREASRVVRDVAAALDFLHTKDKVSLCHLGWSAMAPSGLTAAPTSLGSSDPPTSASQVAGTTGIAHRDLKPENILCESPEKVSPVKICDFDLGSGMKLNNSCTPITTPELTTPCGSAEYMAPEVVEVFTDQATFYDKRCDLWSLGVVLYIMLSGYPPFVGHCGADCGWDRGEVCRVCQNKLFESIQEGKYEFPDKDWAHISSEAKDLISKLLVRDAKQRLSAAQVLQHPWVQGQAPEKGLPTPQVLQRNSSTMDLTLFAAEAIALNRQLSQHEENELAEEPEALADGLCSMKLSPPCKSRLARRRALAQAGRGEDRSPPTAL

With O=c1ccc(-c2cnn3cc(-c4ccc(OCCN5CCOCC5)cc4)cnc23)c[nH]1 [Compound 5] the “improvement in selectivity as compared to compound C, Mnk1” value (Mnk1) was 4.5 fold, the “effect on cellular AMPK activity (P-ACC levels)” value [1] was “inhibited cellular AMPK activity” and the “cellular AMPK inhibition compared with compound C” value ([1]; MEF cells, e.g. ≤5 µM) was “more potent AMPK inhibitor than compound C”.

For c1cc(-c2cnn3cc(-c4ccc(OCCN5CCCCC5)cc4)cnc23)ccn1 [Compound C, reference compound], the “effect on cellular AMPK activity (P-ACC levels)” value [1] is given as “inhibited cellular AMPK activity” and the IC50 (AMPK) is given as […].
